Source: ChEMBL document CHEMBL3507680, “University of Dundee, Gates Library screen for HepG2 cell viability”

assay: Human HepG2 cell viability assay in 384 well format; format: toxicity, cell-based; design: dose 125 nL, time 70.5 hour; cytotoxicity at 70.5 h: concentration not given beside the values; conditions: HepG2 cells, read-out: Inhibition

First: C1CCN(CCOC2CCNCC2)CC1
Second: C1CCN(CCOC2CCNC2)CC1 (stereo not given)
The cytotoxicity at 70.5 h of the first is higher: 19.9% for the first, -3.02% for the second.

First: Cc1[nH]ccc1C(=O)N(Cc1ccc(O)cc1)CC1CC1
Second: Cc1ccc(OCC(=O)N(C)Cc2ccc(F)cc2)cn1
The cytotoxicity at 70.5 h of the first is higher: -3.9% for the first, -8.48% for the second.

First: Cn1cc(C(=O)Nc2cccc(CCN3CCCC3)c2)ccc1=O
Second: COc1cccc2c1CCN(C(=O)NCCc1nccn1C)C2
The cytotoxicity at 70.5 h of the first is lower: -5.46% for the first, -1.05% for the second.

Compared with `COCCNC(=O)C(C)S(=O)(=O)c1ccc(OC)cc1` (stereo not given), `COc1ccc(Cl)cc1NC(=O)N(C)CC(O)COCCOC(C)C` (stereo not given) is lower in cytotoxicity at 70.5 h: 6.85% for the first, -4.88% for the second.

Going from `CC1CCN(c2ccnc3ccc(Br)cc23)CC1` to `COCC1CN(C(=O)Nc2cc(Br)ccc2F)CCO1` (stereo not given), the cytotoxicity at 70.5 h falls from 2% to -10.1%.

First: O=C(CNC(=O)C1CC1)NCCOc1cccc(Cl)c1Cl
Second: O=C1CCC(C(=O)NCCOc2ccccc2-c2ccccc2)CN1 (stereo not given)
The cytotoxicity at 70.5 h of the first is higher: 31.3% for the first, -13.3% for the second.

First: CC(C)CNC(=O)c1ccc(NC(=O)NCC2CC2)cc1Cl
Second: CC(CC(=O)Nc1ccc(C(=O)N(C)C)c(Cl)c1)n1cccc1 (stereo not given)
The cytotoxicity at 70.5 h of the first is lower: -12.7% for the first, 7.79% for the second.

Going from `NC(=O)CCn1nnc(-c2cc3ccccc3o2)n1` to `CCCn1nc(-c2nc(COc3ccccc3)no2)ccc1=O`, the cytotoxicity at 70.5 h rises from -13.1% to -7.31%.

First: N#CCCN(Cc1ccco1)C(=O)Cc1ccc(-n2cnnn2)cc1
Second: CC(C)(C)CN(CCC#N)C(=O)Cc1ccc(-n2cnnn2)cc1
The cytotoxicity at 70.5 h of the first is higher: -6.73% for the first, -10.8% for the second.

Compared with `CSc1sc(NC(=O)C2CCCN(C(N)=O)C2)nc1C` (stereo not given), `CC(C)(NCC(=O)N1CCCC(C(N)=O)C1)c1ccc(Cl)cc1` (stereo not given) is higher in cytotoxicity at 70.5 h: -13.6% for the first, -3.83% for the second.

Compared with `CC1CCN(C(=O)C(C)N2CCc3[nH]nc(C(F)(F)F)c3C2)CC1` (stereo not given), `CC(C(=O)NC1CCCCC1)N1CCc2[nH]nc(C(F)(F)F)c2C1` (stereo not given) is higher in cytotoxicity at 70.5 h: -8.79% for the first, -7.82% for the second.

Compared with `CC(C)(C)NS(=O)(=O)c1cc(NC(=O)C2CC2)ccc1F`, `CN1CCOC(C(=O)Nc2ccc3c(c2)nc(C(C)(C)C)n3C)C1` (stereo not given) is higher in cytotoxicity at 70.5 h: -5.03% for the first, -2.12% for the second.

First: O=C(CCc1ccsc1)NS(=O)(=O)Cc1ccon1
Second: O=C(CSCc1ccccn1)N(Cc1ccsc1)C1CC1
The cytotoxicity at 70.5 h of the first is higher: -0.591% for the first, -2.85% for the second.

Compared with `CCN1CCN(C(=O)NC(C)c2noc(-c3ccccc3)n2)CC1` (stereo not given), `CN(C)C(=O)Cn1ccc2cc(NC(=O)N3CCOCC3)ccc21` is higher in cytotoxicity at 70.5 h: -6.34% for the first, -5.35% for the second.

First: CC(C)(C)c1ncc(CNCC2CCCn3ccnc32)s1 (stereo not given)
Second: Cc1ccc(CNCC2CCCn3ccnc32)s1 (stereo not given)
The cytotoxicity at 70.5 h of the first is lower: -4.17% for the first, -4.1% for the second.

Going from `CCCN(CCN(C)C)C(=O)Cc1cn2ccsc2n1` to `CN(CCC#N)C(=O)Cc1csc(-c2ncccn2)n1`, the cytotoxicity at 70.5 h falls from 5.05% to -3.29%.

Compared with `N#Cc1ccc(NCCCOCC2CCOC2)c(F)c1` (stereo not given), `CC(=O)NC1CCCN(c2ccc(C#N)cc2C(F)(F)F)C1` (stereo not given) is lower in cytotoxicity at 70.5 h: 6.96% for the first, -0.014% for the second.

Going from `CC(Cn1cccn1)NS(=O)(=O)Cc1ccccc1` (stereo not given) to `CN(CCn1cccn1)S(=O)(=O)c1cccc(F)c1C#N`, the cytotoxicity at 70.5 h falls from 24.2% to -9.35%.

Going from `c1cncc(-c2ccnn2CN2CCC3(CC2)OCCO3)c1` to `COc1ccccc1C1(CNc2snc(Cl)c2C#N)CCOCC1`, the cytotoxicity at 70.5 h rises from -5.34% to -4.49%.

Compared with `CN(C)C(=O)Cn1ccc2cc(NC(=O)N3CCSCC3)ccc21`, `COCC1CN(C(=O)Nc2cc(Cl)cc(Cl)c2)CCO1` (stereo not given) is higher in cytotoxicity at 70.5 h: -7.46% for the first, -5.22% for the second.

Going from `Cc1cnn(CCCNC(=O)NC2CCN(CC(F)(F)F)C2=O)c1` (stereo not given) to `COCC1CN(C(=O)Nc2cc(C(F)(F)F)ccc2F)CCO1` (stereo not given), the cytotoxicity at 70.5 h falls from -4.78% to -5.23%.

First: CCC[C@@H](NC(N)=O)C(=O)N1Cc2ccccc2-c2ccccc2C1
Second: COc1cccc2c1CCN(C(=O)NCc1nnc3ccccn13)C2
The cytotoxicity at 70.5 h of the first is lower: -2.69% for the first, 0.687% for the second.

Going from `CN1CCOC(C(=O)N2CCC3(CCCC3)CC2)C1` (stereo not given) to `CN1CCOC(C(=O)N2CCCC(C)(C)CC2)C1` (stereo not given), the cytotoxicity at 70.5 h falls from -2.13% to -3.51%.

First: O=S(=O)(Cc1ccccc1Cl)NC(CO)c1ccco1 (stereo not given)
Second: CCC(C)CN(C)C(=O)NCc1ccccc1-n1cccn1 (stereo not given)
The cytotoxicity at 70.5 h of the first is lower: -6.59% for the first, 1.17% for the second.

Compared with `COc1ccccc1CN(Cc1nc2c(cnn2C)c(=O)[nH]1)C1CC1`, `COc1ccccc1N(C)Cc1nc2c(cnn2C)c(=O)[nH]1` is lower in cytotoxicity at 70.5 h: 28.9% for the first, -4.86% for the second.

Going from `CC(C)(CC(=O)N(CC(N)=O)C1CCCC1)c1ccccc1` to `Cc1cc(F)ccc1S(=O)(=O)N1CCN(C)Cc2ccccc21`, the cytotoxicity at 70.5 h rises from -9.09% to -6.39%.

Going from `CCCn1nc(-c2nc(Cc3ccc(OC)cc3)no2)ccc1=O` to `Cc1noc(COCC(=O)Nc2ccc(Br)c(C)n2)n1`, the cytotoxicity at 70.5 h rises from -8.43% to 24.3%.

First: Cc1cc(C#N)ccc1S(=O)(=O)N1CCN(C)Cc2ccccc21
Second: CS(=O)(=O)CCOCCNc1ccc2ccc(F)cc2n1
The cytotoxicity at 70.5 h of the first is higher: -0.39% for the first, -3.21% for the second.

Going from `Cc1noc(CCCC(=O)Nc2ncccc2Br)n1` to `Cc1noc(COCC(=O)Nc2ncccc2Br)n1`, the cytotoxicity at 70.5 h rises from -7.59% to 2.34%.

First: COCC1CN(C(=O)Nc2ccc(Cl)cc2Cl)CCO1 (stereo not given)
Second: CCCN1CCCN(C(=O)C(CC)N2CCCC2=O)CC1 (stereo not given)
The cytotoxicity at 70.5 h of the first is higher: -8.42% for the first, -14.5% for the second.
